This is an account of results in patent publication US11737462B2, “Methods for modulating plant response to environmentally-induced stress” (Howard University, priority 2012, dated 2023).

The target of one series is T1, Arabidopsis RACK1A (Arabidopsis thaliana, UniProt O24456).
T1 construct: from tissue; host or cells: Arabidopsis plant leaves
Briefly: western blot of RACK1A tyrosine phosphorylation in Arabidopsis leaves under heat stress. The series is classed as in vivo. On the procedure:
In the examples described herein, the test compounds (e.g., SD-29 or analogs thereof) were dissolved in dimethyl sulfoxide (DMSO) to provide a 20 mM concentration. Micromolar concentrations were then prepared as needed by addition to the water incubation media. Unless stated otherwise, the experimental plants were incubated with the roots immersed in the water containing the compound. The control plants received only DMSO in the same amount as that of the compound. In the second group (FIG. 3), Arabidopsis plants were held at 42° C. for six hours and compared to control plants held at about 22° C. The Arabidopsis plant in the experimental group was treated with 60 μM SD-29 in water. A control plant received water and DMSO. Lysates were then prepared from the leaves and western blots were performed using immobilized mouse anti-pTRY and Arabidopsis-anti RAC[…]. […] A similar experiment was carried out using analog SD-29-9 and SD-29 at 42° C. for three hours. […] A western blot was then performed using an antibody that was raised targeting phosphorylated […] residue of RAC[…].
(Immunoblotting shows a protein as a band on a membrane.)

In a further series the test system is MnSOD. Briefly: native gel assay of Mn-SOD activity in rice during salt stress. It is filed as in vivo. The settings on record: salt stress conditions, NaCN in gel activity buffer.
For another series, the system named is rice leaves. Nature of the series: uptake of salts from the incubation medium by rice leaves. It is filed as in vivo. Conditions: 60 μM compound, 250 mM NaCl, vs non-treated leaves. The method, then:
The effect of SD-29 on modulating salt-induced stress was evaluated with rice detached leaves at room temperature (about 24° C.) for seven days in a water incubation medium. All plants received sufficient incubation medium to last the seven days. Plant A (left most) received 250 mM NaCl plus DMSO, Plant B (right of Plant A) received 60 μM SD-29 and 250 mM NaCl, and plant D received 60 μM SD-29 in the incubation medium. The incubation medium of Plant C was untreated. To examine whether the salt stress resistance comes from the differential uptake of sodium ions due to the drug treatment, the uptake of salts from the incubation medium was assayed (leaves from FIG. 5). […] The base point is indicated with 250 mM of salt line.

The subject of another series is Cu/Zn SOD. Nature of the series: native gel analysis of superoxide dismutase activity in pepper leaf lysate. It is filed as in vivo. The settings on record: 60 μM compound plus 250 mM NaCl, vs DMSO treated plants. The method, then:
Native gel analysis was performed on a lysate prepared from the pepper plant leaves in FIG. 8. The gel is stained for detecting enzymatic activity of different isoforms of superoxide dismutase—key enzymes that detoxify the reactive oxygen species which usually develop during the stress conditions. […] Therefore, it appears that SD-29 may help detoxify the cellular reactive oxygen species generated during the salt stress conditions.

Another series has as its system pepper plants. Nature of the series: salt-induced stress in pepper plants. It is filed as in vivo. Conditions: 60 μM compound plus 250 mM NaCl, 48 hours, about 24° C. The method, then: In the examples described herein, the test compounds (e.g., SD-29 or analogs thereof) were dissolved in dimethyl sulfoxide (DMSO) to provide a 20 mM concentration. Micromolar concentrations were then prepared as needed by addition to the water incubation media. Unless stated otherwise, the experimental plants were incubated with the roots immersed in the water containing the compound. The control plants received only DMSO in the same amount as that of the compound.
Salt-induced stress was evaluated with pepper plants at room temperature (about 24° C.) for 48 hours. All plants received sufficient incubation media to last the seven days. Plant A received 60 μM SD-29 plus 250 mM NaCl and plant B received 250 mM NaCl in the incubation medium with DMSO.

The test system of another series is rice detached leaves. Nature of the series: salt-induced stress in rice detached leaves. The settings on record: seven days. The series is classed as in vivo. The method, then: In the examples described herein, the test compounds (e.g., SD-29 or analogs thereof) were dissolved in dimethyl sulfoxide (DMSO) to provide a 20 mM concentration. Micromolar concentrations were then prepared as needed by addition to the water incubation media. Unless stated otherwise, the experimental plants were incubated with the roots immersed in the water containing the compound. The control plants received only DMSO in the same amount as that of the compound. The effect of SD-29 on modulating salt-induced stress was evaluated with rice detached leaves at room temperature (about 24° C.) for seven days in a water incubation medium. All plants received sufficient incubation medium to last the seven days. Plant A (left most) received 250 mM NaCl plus DMSO, Plant B (right of Plant A) received 60 μM SD-29 and 250 mM NaCl, and plant D received 60 μM SD-29 in the incubation medium. The incubation medium of Plant C was untreated. The rice plant leaves were photographed directly after seven days. […] Much of the chlorophyll of plant A (salt treatment alone) was degraded, while SD-29 treated leaves (Leaf B) maintained the chlorophyll level even in the presence of the same amount of salt.

The subject of series [1] is salt glands (trichome) on Arabidopsis leaves. Briefly: sodium green dye staining of Arabidopsis leaves (sodium uptake). The series is classed as in vivo, Arabidopsis thaliana. Conditions: 1 week old plants, 100 mM salt, 60 μM compound, three hours. On the procedure:
1 week old Arabidopsis plants were treated with and without 100 mM salt, as well as with and without the presence of 60 μM SD-29, in incubation medium for three hours. The leaves were stained with sodium green dye (5 μM) according to the manufacturer's protocol (Invitrogen, Calif.) and analyzed by fluorescent microscopy to determine if the plants take up sodium from the incubation medium. The dye fluoresces in the presence of sodium ion.

The subject of a further series is tomato plants. Nature of the series: salt-induced stress in tomato plants. The settings on record: 60 μM compound plus 250 mM NaCl, five days, about 24° C. It is filed as in vivo. On the procedure: In the examples described herein, the test compounds (e.g., SD-29 or analogs thereof) were dissolved in dimethyl sulfoxide (DMSO) to provide a 20 mM concentration. Micromolar concentrations were then prepared as needed by addition to the water incubation media. Unless stated otherwise, the experimental plants were incubated with the roots immersed in the water containing the compound. The control plants received only DMSO in the same amount as that of the compound. Salt-induced stress was evaluated with tomato plants at room temperature (about 24° C.) for five days. The plants received sufficient incubation media to last through the five day experiment. Plant A received 60 μM SD-29 plus 250 mM NaCl and plant B received 250 mM NaCl (plus DMSO in the same volume as the volume of SD-29 received by plant A) in the incubation medium.

T1 sequence (O24456 whole entry): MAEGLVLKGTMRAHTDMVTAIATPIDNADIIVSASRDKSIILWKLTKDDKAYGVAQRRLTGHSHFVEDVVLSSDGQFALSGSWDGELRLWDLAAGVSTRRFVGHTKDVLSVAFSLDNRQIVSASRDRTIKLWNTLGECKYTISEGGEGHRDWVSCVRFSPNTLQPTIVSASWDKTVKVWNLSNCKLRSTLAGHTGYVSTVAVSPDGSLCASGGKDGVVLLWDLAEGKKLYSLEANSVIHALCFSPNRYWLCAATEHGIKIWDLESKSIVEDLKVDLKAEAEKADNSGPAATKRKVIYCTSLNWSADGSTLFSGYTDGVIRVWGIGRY

With `Nn1c(S)nnc1-c1ccc(F)cc1` [SD-29], the “Arabidopsis RACK1A tyrosine phosphorylation during heat stress” value on Arabidopsis RACK1A (60 μM, 42° C. for six hours, western blot of leaf lysates) was “prevents Arabidopsis RACK1A tyrosine phosphorylation”. Also, the “Arabidopsis RACK1A tyrosine phosphorylation at increased temperature” value at Arabidopsis RACK1A (42° C. for three hours, western blot, antibody to phosphorylated Y248) is “effective to prevent Arabidopsis RACK1A tyrosine phosphorylation at increased temperature”. Further, in the series on MnSOD, the “MnSOD activity in rice” value is “upregulates MnSOD activity”. Also, the “sodium ions remaining in the incubation medium” value in the series on rice leaves is on record as “more sodium ions remained in the incubation medium”. Further, the “cytoplasmic and chloroplastic Cu/Zn SOD enzyme activities in pepper leaves” value in the series on Cu/Zn SOD was “caused upregulation of both the cytoplasmic (lower band) and chloroplastic (upper band) Cu/Zn SOD enzyme activities”. In addition, in the series with pepper plants, the “pepper plant condition in high salt” value is “thrived in the high salt conditions (with no chlorosis)”. In addition, the “salt stress-induced chlorosis of rice leaves” value in the series with rice detached leaves (60 μM compound and 250 mM NaCl, about 24° C.) is “protect the rice leaves from salt stress-induced chlorosis”. Besides, in the series with rice detached leaves (60 μM compound without salt, vs untreated Leaf C), the “rice leaf appearance with compound alone” value was “showed little difference from control Leaf C”. In addition, in series [1], the “salt uptake through the salt glands (sodium green fluorescence)” value is “prevents salt uptake through the salt glands (trichome)”. In addition, in the series with tomato plants, the “tomato plant condition in high salt” value was “thrived (did not wilt) in the high salt conditions”.
